Source: PMC5864050 (PLoS ONE, 2018)
Where a name gives a salt, the structure may show the parent alone. Read-outs that look alike come from different tables or passages of the source.

Legend:
MERS-CoV [1] = test: microbe, parasite or virus in culture; assay type: cell-based, MERS-CoV Jordan strain (Hu/Jordan-N3/2012); conditions: for EC50: Middle East respiratory syndrome-related coronavirus
MERS-CoV [2] = assay type: cell-based, MERS-CoV Jordan strain (Hu/Jordan-N3/2012)
MERS-CoV [3] = assay type: cell-based, MERS-CoV Jordan strain (Hu/Jordan-N3/2012); remark: listed apart in the source
MERS-CoV [4] = assay type: cell-based, MERS-CoV Jordan strain (Hu/Jordan-N3/2012); remark: listed apart in the source
MERS-CoV [5] = conditions: cited from earlier work
MERS-CoV [6] = conditions: read-out: EC50, MERS-CoV infection; cited from earlier work
in vitro = conditions: human
Vero E6 cells = conditions: cited from earlier work
Huh 7 cells = conditions: cited from earlier work
MERS-CoV and SARS-CoV = conditions: cited from earlier work
SARS-CoV = conditions: cited from earlier work

## CN(C)CCCN1c2ccccc2Sc2ccc(Cl)cc21 [CPZ, Chlorpromazine hydrochloride]
MERS-CoV [1]
  selectivity index (SI = CC50÷EC50): 1.9
MERS-CoV [1]; read-out: EC50, antiviral activity against MERS-CoV
  EC50: 13.6 µM
MERS-CoV [2]
  virus yield reduction (TCID50): ~2 log10
MERS-CoV [3]
  virus yield reduction (TCID50): ~2 log10
MERS-CoV [4]
  activity against MERS-CoV infection by virus yield reduction (in words): active
  virus yield reduction (TCID50), drop: 3.1 log10
Immature MDDCs
  cytotoxicity (in words): high cytotoxicity
MERS-CoV [5]
  EC50: 9.5 µM
MERS-CoV [6]
  EC50: 4.9 µM
In vitro
  CC50: 25.6 µM
Vero E6 cells
  cytotoxicity (in words): low cytotoxicity
Huh 7 cells
  CC50: 21.3 µM

## CCN(CC)CCCC(C)Nc1ccnc2cc(Cl)ccc12 (stereo not drawn) [CQ, chloroquine diphosphate salt]
MERS-CoV [2]
  virus yield reduction (TCID50): no virus yield reduction
MERS-CoV [3]
  virus yield reduction (TCID50): no virus yield reduction
MERS-CoV [4]
  activity against MERS-CoV infection by virus yield reduction (in words): not active
MERS-CoV [5]
  EC50: 6.3 µM
MERS-CoV and SARS-CoV
  toxicity (in words): low toxicity

## CN(C)CCOc1ccc(/C(=C(/CCCl)c2ccccc2)c2ccccc2)cc1 [TOMF, Toremifene citrate]
MERS-CoV [1]
  EC50, antiviral activity against MERS-CoV: too low to determine an EC50
  EC50: 38 µM
MERS-CoV [2]
  virus yield reduction (TCID50): 1–1.5 log10
MERS-CoV [3]
  virus yield reduction (TCID50): 1–1.5 log10
MERS-CoV [4]
  activity against MERS-CoV infection by virus yield reduction (in words): not active
SARS-CoV
  EC50: 12 µM
In vitro
  CC50: 22.5 µM
